Where a name gives a salt, the structure may show the parent alone.
test system: AMPA receptor; assay: Inhibitory action on AMPA-inducing inflow of calcium into nerve cells (Fura2-AM); format: cell-based; settings: rat cerebral cortex nerve cells on astrocytes, 1 μM MK-801, stimulated by 2 μM AMPA, fluorescence 340/380 nm
Experimental: The cerebral cortex was excised from the brain of a rat on day 18 after birth and treated with trypsin and DNase, whereby the cells were dispersed. The cells were allowed to float on DMEM containing 10% serum, inoculated into a culture bottle, and their astrocytes were grown. The astrocytes were re-dispersed with trypsin and inoculated onto each well on a 96-well plate. After it was confirmed that the bottom of each well was completely covered with the astrocytes after culture for 1 week, cerebral cortex nerve cells dispersed in the same manner as above were inoculated thereon. After 24 hours, the medium was exchanged with fresh one, and after culture for further 1 week, the medium was exchanged with a medium containing 1 μM MK-801.
The inflow of calcium into the cells was measured using Fura2-AM that is a calcium-sensitive fluorescent pigment. By treating the cells with a Fura2-AM-containing medium for 1 hour, Fura2-AM was incorporated into the cells, and the medium was exchanged with a Tyrode solution containing 1 μM MK-801. After a test compound was added, the cells were stimulated by 2 μM AMPA. The change in the amount of calcium flowing into the cells was measured as a change in the fluorescence intensity at wavelengths of 340/380 nm. The effect of a test compound was evaluated where the reaction caused by AMPA added to the Tyrode solution free of the test compound was used as the control.

| SMILES | IC50 [µM] |
| --- | --- |
| O=C1CSC(c2ccccc2)=NN1c1ccccc1 [Example 4, 2,4-Diphenyl-4H-1,3,4-thiadiazine-5(6H)-one] | 12 |
| O=C1COC(c2ccccn2)=NN1c1ccc(F)cc1F [Example 10, 2-(2-Pyridyl)-4-(2,4-difluorophenyl)-4H-1,3,4-oxadiazine-5(6H)-one hydrochloride] | 44.2 |
| O=C1COC(c2ccccn2)=NN1C1CCCCC1 [Example 11, 2-(2-Pyridyl)-4-cyclohexyl-4H-1,3,4-oxadiazine-5(6H)-one hydrochloride] | 69 |
| O=C1COC(/C=C/c2cccnc2)=NN1c1ccccc1 [Example 16, 2-[2-(3-Pyridyl)vinyl]-4-phenyl-4H-1,3,4-oxadiazine-5(6H)-one] | 24.9 |
| COc1ccccc1C1=NN(c2ccccc2Br)C(=O)CO1 [Example 17, 2-(2-Methoxyphenyl)-4-(2-bromophenyl)-4H-1,3,4-oxadiazine-5(6H)-one] | 5.83 |
| O=C1COC(C2CCCCC2)=NN1c1ccccc1 [Example 22, 2-Cyclohexyl-4-phenyl-4H-1,3,4-oxadiazine-5(6H)-one] | 67.3 |
| COc1ccccc1C1=NN(c2ccccc2F)C(=O)CO1 [Example 26, 2-(2-Methoxyphenyl)-4-(2-fluorophenyl)-4H-1,3,4-oxadiazine-5(6H)-one] | 10.8 |
| O=C1COC(c2ccccc2)=NN1C1CCCCC1 [Example 27, 2-Phenyl-4-cyclohexyl-4H-1,3,4-oxadiazine-5(6H)-one] | 33.1 |
| COc1ccccc1C1=NN(C2CCCCC2)C(=O)CO1 [Example 28, 2-(2-Methoxyphenyl)-4-cyclohexyl-4H-1,3,4-oxadiazine-5(6H)-one] | 25.2 |
| O=C1COC(c2cccnc2)=NN1c1ccccc1 [Example 29, 2-(3-Pyridyl)-4-phenyl-4H-1,3,4-oxadiazine-5(6H)-one hydrochloride] | 43.5 |
| O=C1COC(c2ccccn2)=NN1c1ccccc1Br [Example 33, 2-(2-Pyridyl)-4-(2-bromophenyl)-4H-1,3,4-oxadiazine-5(6H)-one] | 4.28 |
| O=C1COC(c2ccccn2)=NN1c1ccccc1F [Example 34, 2-(2-Pyridyl)-4-(2-fluorophenyl)-4H-1,3,4-oxadiazine-5(6H)-one] | 9.21 |
| COc1ccccc1N1N=C(c2ccccn2)OCC1=O [Example 35, 2-(2-Pyridyl)-4-(2-methoxyphenyl)-4H-1,3,4-oxadiazine-5(6H)-one] | 42.7 |
| O=C1COC(c2ccccc2)=NN1c1cccnc1 [Example 39, 2-Phenyl-4-(3-pyridyl)-4H-1,3,4-oxadiazine-5(6H)-one hydrochloride] | 51.4 |
| N#Cc1cccnc1N1N=C(c2ccccc2)OCC1=O [Example 40, 2-Phenyl-4-(3-cyano-2-pyridyl)-4H-1,3,4-oxadiazine-5(6H)-one hydrochloride] | 34.8 |
| N#Cc1ncccc1N1N=C(c2ccccc2)OCC1=O [Example 42, 2-Phenyl-4-(2-cyano-3-pyridyl)-4H-1,3,4-oxadiazine-5(6H)-one hydrochloride] | 3.13 |
| O=C1COC(c2ccccc2)=NN1c1cccs1 [Example 43, 2-Phenyl-4-(2-thienyl)-4H-1,3,4-oxadiazine-5(6H)-one] | 25.3 |
| O=C1COC(c2ccccc2)=NN1c1ccsc1 [Example 44, 2-Phenyl-4-(3-thienyl)-4H-1,3,4-oxadiazine-5(6H)-one] | 22.7 |
| O=C1COC(c2ccccc2O)=NN1c1ccc(F)cc1 [Example 52, 2-(2-Hydroxyphenyl)-4-(4-fluorophenyl)-4H-1,3,4-oxadiazine-5(6H)-one] | 1.52 |
| O=C1COC(c2ccccc2O)=NN1c1ccc(F)cc1F [Example 53, 2-(2-Hydroxyphenyl)-4-(2,4-difluorophenyl)-4H-1,3,4-oxadiazine-5(6H)-one] | 1.92 |
| O=C1COC(c2ccccc2OCCCN2CCCCC2)=NN1c1ccccc1 [Example 63, 2-{2-[3-(1-Piperidinyl)propoxy]phenyl}-4-phenyl-4H-1,3,4-oxadiazine-5(6H)-one hydrochloride] | 24.7 |
| CN(C)CCOc1ccccc1C1=NN(c2ccccc2F)C(=O)CO1 [Example 66, 2-[2-(2-Dimethylaminoethoxy)phenyl]-4-(2-fluorophenyl)-4H-1,3,4-oxadiazine-5(6H)-one hydrochloride] | 3.54 |
| O=C1COC(c2ccccc2OCCN2CCOCC2)=NN1c1ccccc1F [Example 67, 2-{2-[2-(4-Morpholinyl)ethoxy]phenyl}-4-(2-fluorophenyl)-4H-1,3,4-oxadiazine-5(6H)-one hydrochloride] | 6.62 |
| O=C1COC(c2ccccc2OCCN2CCOCC2)=NN1C1CCCCC1 [Example 69, 2-{2-[2-(4-Morpholinyl)ethoxy]phenyl}-4-cyclohexyl-4H-1,3,4-oxadiazine-5(6H)-one hydrochloride] | 68.7 |

Results, then the compound that gave them:

| IC50 [µM] | SMILES |
| --- | --- |
| 33.2 | Cn1cccc1C1=NN(c2ccccc2)C(=O)CO1 [Example 3, 2-(1-Methyl-2-pyrolyl)-4-phenyl-4H-1,3,4-oxadiazine-5(6H)-one] |
| 48 | O=C1COC(c2ccc[nH]2)=NN1c1ccccc1 [Example 6, 2-(2-Pyrrolyl)-4-phenyl-4H-1,3,4-oxadiazine-5(6H)-one] |
| 21.1 | Cc1cccc(C2=NN(c3ccccc3)C(=O)CO2)n1 [Example 8, 2-(6-Methyl-2-pyridyl)-4-phenyl-4H-1,3,4-oxadiazine-5(6H)-one hydrochloride] |
| 42.8 | O=C1COC(c2ccnc(Cl)c2)=NN1c1ccccc1 [Example 12, 2-(2-Chloro-4-pyridyl)-4-phenyl-4H-1,3,4-oxadiazine-5(6H)-one hydrochloride] |
| 27.5 | O=C1COC(/C=C/c2ccccc2)=NN1c1ccccc1 [Example 15, 2-Styryl-4-phenyl-4H-1,3,4-oxadiazine-5(6H)-one] |
| 28.2 | O=C1COC(c2ccccc2[N+](=O)[O-])=NN1c1ccccc1 [Example 20, 2-(2-Nitrophenyl)-4-phenyl-4H-1,3,4-oxadiazine-5(6H)-one] |
| 1.73 | O=C1COC(c2ccccc2)=NN1c1ccccc1Br [Example 30, 2-Phenyl-4-(2-bromophenyl)-4H-1,3,4-oxadiazine-5(6H)-one] |
| 8.3 | O=C1COC(c2cccs2)=NN1c1ccccc1 [Example 31, 2-(2-Thienyl)-4-phenyl-4H-1,3,4-oxadiazine-5(6H)-one] |
| 36.6 | O=C1COC(Cc2ccccc2)=NN1c1ccccc1 [Example 32, 2-Benzyl-4-phenyl-4H-1,3,4-oxadiazine-5(6H)-one] |
| 3.94 | O=C1COC(c2ccccc2)=NN1c1ccccc1[N+](=O)[O-] [Example 37, 2-Phenyl-4-(2-nitrophenyl)-4H-1,3,4-oxadiazine-5(6H)-one] |
| 53.3 | O=C1COC(c2ccccc2)=NN1c1ccccc1CO [Example 41, 2-Phenyl-4-(2-hydroxymethylphenyl)-4H-1,3,4-oxadiazine-5(6H)-one] |
| 13.1 | N#Cc1cccc(N2N=C(c3ccccc3)OCC2=O)c1 [Example 46, 2-Phenyl-4-(3-cyanophenyl)-4H-1,3,4-oxadiazine-5(6H)-one] |
| 1.29 | O=C1COC(c2ccccc2O)=NN1c1ccccc1Br [Example 48, 2-(2-hydroxyphenyl)-4-(2-bromophenyl)-4H-1,3,4-oxadiazine-5(6H)-one] |
| 2.7 | O=C1COC(c2ccccc2O)=NN1c1ccccc1 [Example 49, 2-(2-Hydroxyphenyl)-4-phenyl-4H-1,3,4-oxadiazine-5(6H)-one] |
| 27.9 | O=C1COC(c2ccccc2)=NN1c1ccccc1O [Example 50, 2-Phenyl-4-(2-hydroxyphenyl)-4H-1,3,4-oxadiazine-5(6H)-one] |
| 1.06 | O=C1COC(c2ccccc2O)=NN1c1ccccc1F [Example 51, 2-(2-Hydroxyphenyl)-4-(2-fluorophenyl)-4H-1,3,4-oxadiazine-5(6H)-one] |
| 10.5 | O=C1COC(c2ccccc2OCc2ccncc2)=NN1c1ccccc1 [Example 55, 2-[2-(4-Pyridyl)methoxyphenyl]-4-phenyl-4H-1,3,4-oxadiazine-5(6H)-one] |
| 17.6 | O=C1COC(c2ccccc2OCCN2CCOCC2)=NN1c1ccccc1 [Example 56, 2-{2-[2-(4-Morpholinyl)ethoxy]phenyl}-4-phenyl-4H-1,3,4-oxadiazine-5(6H)-one hydrochloride] |
| 14.3 | O=C1COC(c2ccccc2OCc2cccnc2)=NN1c1ccccc1 [Example 58, 2-[2-(3-Pyridyl)methoxyphenyl]-4-phenyl-4H-1,3,4-oxadiazine-5(6H)-one hydrochloride] |
| 8.29 | O=C1COC(c2ccccc2OCCN2CCCCC2)=NN1c1ccccc1 [Example 59, 2-{2-[2-(1-Piperidyl)ethoxy]phenyl}-4-phenyl-4H-1,3,4-oxadiazine-5(6H)-one] |
| 7.26 | O=C1COC(c2ccccc2OCCN2CCCC2)=NN1c1ccccc1 [Example 60, 2-{2-[2-(1-Pyrrolidinyl)ethoxy]phenyl}-4-phenyl-4H-1,3,4-oxadiazine-5(6H)-one] |
| 4.61 | CN(C)CCOc1ccccc1C1=NN(c2ccccc2)C(=O)CO1 [Example 61, 2-[2-(2-Dimethylaminoethoxy)phenyl]-4-phenyl-4H-1,3,4-oxadiazine-5(6H)-one hydrochloride] |
| 25.1 | CN(C)CCCOc1ccccc1C1=NN(c2ccccc2)C(=O)CO1 [Example 62, 2-[2-(3-Dimethylaminopropoxy)phenyl]-4-phenyl-4H-1,3,4-oxadiazine-5(6H)-one hydrochloride] |
